In a melting point compilation (Tetko et al.; mined from patent text by program, amines drawn as free bases though some values may be those of a salt):

First: CCOc1cc(OCC)nc(N2CCN(Cc3ccc(CNC(C)=O)cc3)CC2)n1
Second: CCn1cc(C(=O)NCc2ccc(Cl)cc2)c(=O)c2cc(CN3CCOCC3)sc21
The melting point of the first is lower: 119 to 120 °C for the first, 194 to 196 °C for the second.

Compared with `O=C(NCCO)c1cccc(-c2cccc3cc(Cc4ccc(OCC(F)(F)F)nc4)sc23)c1`, `CN(C)C(=O)CNC(=O)c1ccc(-c2ccc3nnn(Cc4ccc5ncccc5c4)c3n2)cc1F` is higher in melting point: 123 to 124 °C for the first, 177 to 179 °C for the second.

Compared with `CC1=C(C(=O)OC(C)C)[C@@H](c2cccc(Cl)c2)NC(=O)N1C(N)=O`, `CC(C)N1C(=O)C(C(N)=O)N(c2cc(Cl)cc(Cl)c2)C1=O` (stereo unspecified) is higher in melting point: 131 to 133 °C for the first, 200 °C for the second.

Compared with `Cc1ccc(C(=O)Cn2c(-n3ncnc3N)nc3ccccc32)cc1C`, `Cc1ccc(-c2cc(OCC3CO3)c3ccccc3n2)cc1` (racemic) is lower in melting point: 190 to 193 °C for the first, 100 to 102 °C for the second.

First: CCCCCCCCC#CCCCCCCCC(=O)Nc1nc(CC(=O)O)cs1
Second: CCCCCCCCCCCCCCCCN(C(=O)C(F)(F)F)c1ccc(C(=O)O)cc1
The melting point of the first is higher: 95.5 to 96.5 °C for the first, 50 to 53 °C for the second.

First: Cc1nc(Cl)c(C#N)c(NCc2cccnc2)n1
Second: CC(C)c1n[nH]c2c(NCc3ccco3)ncnc12
The melting point of the first is lower: 165 to 167 °C for the first, 179 to 182 °C for the second.

Going from `CC(C)OC(=O)C(C)Oc1ccc(COc2ccc(Cl)cc2)cc1` (stereo unspecified) to `COc1ccc(OC[C@@H](O)CNCCc2ccc(NC3SC(=O)NC3=O)cc2)cc1` (stereo partly specified), the melting point falls from 81 °C to 60 °C.

Compared with `CN(C(CCn1c(=O)cc(C(F)(F)F)[nH]c1=O)C(=O)NO)S(=O)(=O)c1ccc(Oc2cccc(Cl)c2)cc1` (stereo unspecified), `COc1ccc(S(=O)(=O)C(CC(=O)NO)c2ccccc2)cc1` (stereo unspecified) is lower in melting point: 168 to 169 °C for the first, 157 to 159 °C for the second.

First: N#CN=C(Nc1ccc(C#N)c(Br)c1O)Nc1cccc2c1OCO2
Second: N#Cc1cccc(-c2ccc(O)c(-c3nc4cc(C#N)ccc4[nH]3)c2)c1
The melting point of the first is lower: 164 to 165 °C for the first, 348 to 350 °C for the second.

First: Cc1cc(-c2nc3ccc(N4CCOCC4)cc3c(=O)[nH]2)cc(C)c1OCCO
Second: COC(=O)c1ccc2c(c1)S(=O)(=O)c1ccccc1N=C2N1CCOCC1
The melting point of the first is higher: 280 to 281 °C for the first, 164 to 166 °C for the second.

First: Nc1ccc(S(=O)(=O)N2CCCC(c3ccc(Cl)c(Cl)c3)=N2)cc1
Second: CS(=O)(=O)c1ccc(-c2cc(=O)n(C3CCCC3)nc2-c2ccc(F)cc2)cc1
The melting point of the first is higher: 232 to 234 °C for the first, 191 to 192 °C for the second.

First: CCOC(=O)C(=O)Nc1ccc(Cl)cc1C(F)(F)F
Second: CC(=O)Nc1ccc(OC(F)(F)F)cc1Br
The melting point of the first is lower: 55 to 58 °C for the first, 123 °C for the second.

First: COC(=O)c1ccc(-c2cccc(C=O)c2)cc1
Second: CCc1ccc(-c2ccc(-c3ccc(CC)s3)c(F)c2)cc1
The melting point of the first is higher: 95 to 97 °C for the first, 67 °C for the second.

First: COc1ccc(N(C(=O)c2ccc3ccccc3c2)c2ccc(OCc3ccccc3)cc2)cc1
Second: Cc1ccccc1C(CCC(=O)O)Oc1cc(OCc2cccc(C(=O)O)c2)ccc1[N+](=O)[O-] (racemic)
The melting point of the first is higher: 175 to 176 °C for the first, 85 to 87 °C for the second.

First: CN1C(=O)[C@H](NC(=O)/C=C/c2cccc(Cl)c2)N=C(c2ccccc2)c2ccccc21
Second: CS(=O)(=O)c1ccc(-c2cnn(-c3cccc(Cl)c3)c(=O)c2Cc2ccccc2)cc1
The melting point of the first is higher: 229 to 231 °C for the first, 174 to 177 °C for the second.

Compared with `CC(Sc1ccccc1)C1C=CCC1C(N)=O` (stereo unspecified), `COC(=O)c1cc(O)nn1-c1ccccc1` is higher in melting point: 109 °C for the first, 227 to 228 °C for the second.

First: CC(=O)Oc1cc(OC(C)=O)c2ccccc2c1OC(C)=O
Second: CC(C)(C)OC(=O)CSC(NCc1ccccc1)=C1C(=O)CCCC1=O
The melting point of the first is lower: 136 to 137 °C for the first, 142 to 143 °C for the second.

Compared with `CC(C)(C)C(=O)Nc1nn(C(=O)C(C)(C)C)c(N)c1C#N`, `CC(C)(C)C(=O)NNc1ccc([N+](=O)[O-])cc1Br` is lower in melting point: 181 to 184 °C for the first, 145 °C for the second.

First: Cn1c(C(F)(F)F)cc(=O)n(-c2cc(OCSc3ccccc3)c(Cl)cc2F)c1=O
Second: CN(Cc1cc(C(F)(F)F)cc(C(F)(F)F)c1)C(=O)c1oc(=O)c2ccc(Cl)cc2c1-c1ccccc1
The melting point of the first is lower: 91 to 94 °C for the first, 170 to 171 °C for the second.

Compared with `Fc1ccc(F)c(-c2nc(-c3ccccn3)no2)c1`, `FCc1cccc(C#CCCc2cnc3cc(F)c(F)cc3n2)n1` is higher in melting point: 120 to 126 °C for the first, 135 to 138 °C for the second.

Compared with `CCOC(=O)NCC#N`, `CCOC(=O)C(=O)Nc1nc(C)c(C)s1` is higher in melting point: 49 °C for the first, 86 to 88 °C for the second.

Compared with `Cc1nnc(CNc2c(C)cccc2C)o1`, `CCC(C(=O)Nc1c(C)cccc1C)N1C(=O)c2ccccc2C1=O` (stereo unspecified) is higher in melting point: 134 to 135 °C for the first, 195 to 196 °C for the second.

First: CCOCC1(C)CCCSc2cc(C#Cc3ccc(C(=O)O)cc3)ccc21 (stereo unspecified)
Second: Cc1ccc(C(=S)Oc2ccc(C(=O)O)cc2)cc1C12CC3CC(CC(C3)C1)C2
The melting point of the first is lower: 154 to 155 °C for the first, 276 to 277 °C for the second.

First: CCSc1cc(C=NO)c(Cl)cn1
Second: ON=Cc1c[nH]cc1-c1cccc(Cl)c1Cl
The melting point of the first is lower: 128 to 130 °C for the first, 158 to 160 °C for the second.

First: C(=C1CCc2cccnc21)c1ccccc1
Second: CCCN(c1ccccc1)c1nc(=O)c2cccnc2s1
The melting point of the first is lower: 74 to 75 °C for the first, 141 to 142 °C for the second.

First: O=C(c1ccc(F)cc1)c1ccc2[nH]c(=O)nc(-c3cccc(Cl)c3)c2c1
Second: O=S(=O)(Nc1cccc(Cl)c1)c1cc(S(=O)(=O)Nc2cccc(Cl)c2)c2cc(O)ccc2c1
The melting point of the first is higher: 226 °C for the first, 206 to 208 °C for the second.

First: CCOC(=O)c1oc2ccc([N+](=O)[O-])cc2c1OC(C)C
Second: CCOC(=O)C1=C(NC(=O)Nc2cc(C(=O)OC(C)C)c(Cl)cc2F)CCCC1
The melting point of the first is lower: 122 °C for the first, 129 to 130 °C for the second.

First: CNc1ccc(-c2ocnc2-c2cc(OC)cc(OC)c2)cc1F
Second: COc1ccc(-c2nc(Sc3ccc(C(F)(F)F)cc3[N+](=O)[O-])[nH]c2-c2ccc(OC)cc2)cc1
The melting point of the first is lower: 140 to 142 °C for the first, 264 to 266 °C for the second.

First: O=C(O)c1cccn1Cc1ccco1
Second: CN1CC(CCn2ccnc2)Oc2ncccc2C1=O (stereo unspecified)
The melting point of the first is lower: 117 to 118 °C for the first, 150 to 152 °C for the second.

Compared with `O=C(O)c1cc(F)c(F)c(Cl)c1F`, `Cc1c(F)c(F)c(O)c2c(=O)c(C(=O)O)cn(-c3cc(N)c(F)cc3F)c12` is higher in melting point: 109 to 111 °C for the first, over 280 °C for the second.

First: O=[N+]([O-])C=C(NCCSCc1nccs1)NCCSCc1nccs1
Second: CC(=O)Nc1ccc(OCCCCCO[N+](=O)[O-])cc1
The melting point of the first is lower: 50 to 51 °C for the first, 96 to 98 °C for the second.

First: [N-]=[N+]=NC1(O)CC(n2cc(I)c(=O)[nH]c2=O)OC1CO (stereo unspecified)
Second: Cc1nc2cccc(N)c2c(=O)n1C1CCC(=O)NC1=O (stereo unspecified)
The melting point of the first is lower: 126 to 130 °C for the first, 293 to 295 °C for the second.

First: NC1=NC(c2ccccc2)(c2cccc(Cc3ccc(F)cc3)c2)C2=NCCCN12 (stereo unspecified)
Second: CC(C(=O)N1CCCc2ccccc21)N(C(=O)CN1C(=O)c2ccccc2C1=O)c1ccccc1 (racemic)
The melting point of the first is lower: 152 °C for the first, 191 °C for the second.

Compared with `CC1(C)CCC(C)(C)c2cc(CCCSN3C=CC=NC3)c(/C=C/c3ccc(C(=O)O)cc3)cc21`, `O=C(O)c1ccc2cc(OCCOc3ccc4c(CCO)c(C(=O)O)c(CCO)cc4c3)ccc2c1` is higher in melting point: 177 to 178 °C for the first, 240 °C for the second.

Compared with `O=C1NC(=O)C(Cc2ccc(OCCNc3nc4ccccc4o3)cc2)S1` (stereo unspecified), `Clc1ccc([C@@H]2CNc3ccccc3S2)cc1` is lower in melting point: 202 to 203 °C for the first, 151 to 153 °C for the second.

First: CC(=O)c1ccc2c(c1)C1(c3ccccc3-2)c2ccccc2-c2ccc(C(C)=O)cc21
Second: CN(C)C=CC(=O)c1ccc(C(=O)N2Cc3ccnn3Cc3ccccc32)cc1
The melting point of the first is higher: 255 to 257 °C for the first, 225 to 230 °C for the second.

Compared with `NC1CCN(C2c3ccccc3COc3ccc(Br)cc32)CC1` (stereo unspecified), `OC1CCN(c2nc(-c3ccccc3)nc3ccccc23)C1` (stereo unspecified) is higher in melting point: 142 to 144 °C for the first, 180 to 182 °C for the second.

Compared with `C#CCOc1ccc(-c2ccccc2NC(=O)C(NS(=O)(=O)CC)C(C)C)cc1OC` (stereo unspecified), `COc1ccc(CCN(C)CCCC(C)(C(=O)OC(C)C)c2ccc(OC)c(OC)c2)cc1OC` (stereo unspecified) is lower in melting point: 97 to 103 °C for the first, 85 to 87 °C for the second.

First: CCC(=O)N(c1ccc(C#N)cc1)c1c(NC(C)C(C)(C)C)c(=O)c1=O (stereo unspecified)
Second: CC(C)(C)NCC(O)COc1ccc(-c2csnn2)cc1 (stereo unspecified)
The melting point of the first is higher: 211 to 214 °C for the first, 124 to 125 °C for the second.

First: COC(=O)CCCC(=O)c1ccc(OC)c(CCC(=O)OC)n1
Second: COC(=O)COC(=O)Cc1cc(Oc2ccc(C(F)(F)F)cc2Cl)ccc1[N+](=O)[O-]
The melting point of the first is lower: 64 to 66 °C for the first, 79.2 to 80.1 °C for the second.

First: O=C1CC(c2ccc(Cl)cc2)ON1CC(O)CN1CCOCC1 (stereo unspecified)
Second: Nc1c2c(nn1-c1ccc(Cl)cc1)CCCC2
The melting point of the first is lower: 121 to 123 °C for the first, 140 to 142 °C for the second.

First: CCCc1c(-c2ccc(Cl)cc2)n[nH]c1-c1cccs1
Second: Oc1ccc(-c2n[nH]c3ccccc23)cc1
The melting point of the first is lower: 129 to 132 °C for the first, 189 to 190 °C for the second.

First: CCOC(=O)c1cc2cc(NS(=O)(=O)CCCCl)ccc2[nH]1
Second: CCCCCCCCCCCCCOc1ccc(CNc2ccc(C(=O)OCC)cc2)cc1
The melting point of the first is higher: 195 to 196 °C for the first, 95 to 105 °C for the second.

Compared with `COC(=O)C=Cc1ccc(Br)nc1`, `O=Cc1ccc(C=Cc2ccc3ccccc3n2)cc1` is lower in melting point: 150 °C for the first, 112 to 113 °C for the second.

Going from `CCN(CC)C(=O)CNC1(c2ccccc2Cl)C(=O)Nc2ccc(Cl)cc21` (stereo unspecified) to `CN1C(C(=O)NC2CCC(O)CC2)C(c2cccc(Cl)c2F)C2(C(=O)Nc3cc(Cl)ccc32)C1CC(C)(C)C` (stereo unspecified), the melting point falls from 223 °C to 188 °C.

First: CCOCCOc1ccc(OCC(O)CNCCNC(=O)N2CCOCC2)c(Br)c1 (stereo unspecified)
Second: Cc1nnc(-c2cc3c(OC[C@@H](O)CN4CCC(c5ccc6ccccc6c5)CC4)cccc3[nH]2)o1
The melting point of the first is lower: 98 °C for the first, 215 to 217 °C for the second.

Compared with `O=[N+]([O-])c1ccc(C2=NCCCN2)cc1`, `CC(=O)Nc1c([N+](=O)[O-])cc(Br)c2c1CCN(C)C2` is higher in melting point: 168 to 172 °C for the first, 190 to 192 °C for the second.

Compared with `Cc1sc(Br)c(C)c1C(=O)O`, `CNC(=O)Oc1cc(C)c(NC(=O)C(F)(F)Cl)c(C)c1` is lower in melting point: 183 to 184 °C for the first, 163 to 165 °C for the second.

Compared with `O=c1c(Cn2cncn2)cc2cc(Br)ccc2n1-c1ccccc1`, `Fc1ccc2[nH]cc(CCCCN3CCN(c4cccc(Cl)c4Cl)CC3)c2c1` is lower in melting point: 237 to 240 °C for the first, 147 to 148 °C for the second.

Compared with `C=CCOc1cc(-c2cc(=O)c3c(O)cc(O)cc3o2)ccc1OC`, `COc1cc(-n2cnc(C)c2C)cc2oc(=O)c(C)c(C)c12` is lower in melting point: 219 °C for the first, 196 to 198 °C for the second.

Compound `CCCCCCCCc1ccc(OC2=CC(=O)OC2O)cc1` (stereo unspecified) has a melting point of 59 to 61 °C.
